Assays:
Assay type in all cases: in vivo
[1] = system: barnyard grass (Eo); test: Test Example 1: herbicidal effects by flooded paddy field treatment; design: herbicidal effects, Eo (barnyard grass):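 0-5 growth inhibition grade; 5 = over 90%; 4 = 70-90%; 3 = 50-70%; 2 = 30-50%; 1 = 10-30%; 0 = under 10%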; settings: for herbicidal effects, Eo (barnyard grass): dose 100 g active ingredient per 10 ares, examined on the 21st day after treatment, standards of Table 44; for Herbicidal effect index, Eo: dose 100 gai/10a, examined on 21st day after treatment, index 0-5 per Table 44;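 on Herbicidal effect index, Eo: 0-5 growth inhibition grade; 5 = over 90%; 4 = 70-90%; 3 = 50-70%; 2 = 30-50%; 1 = 10-30%; 0 = under 10%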
Outline: (§1)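 Pots hold puddled paddy soil; seeds are sown and the pots flooded 3 cm deep. Next day, diluted wettable powder goes dropwise onto the water at a dose of 100 g active ingredient per 10 ares, and herbicidal effects are rated after 21 days in a greenhouse.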

[2] = system: green foxtail (Se); test: Test Example 2: herbicidal effects by upland soil treatment; settings: dose 100 g active ingredient per 10 ares, examined on the 21st day after treatment, standards of Table 44;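 further: 0-5 growth inhibition grade; 5 = over 90%; 4 = 70-90%; 3 = 50-70%; 2 = 30-50%; 1 = 10-30%; 0 = under 10%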
Outline: (§2)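 Pre-emergence test: barnyard grass and green foxtail sown in upland soil, then soil surface sprayed with wettable-powder formulation at 100 g active ingredient per 10 ares (100 l per 10 ares). Grown in greenhouse; herbicidal effect scored on a rating scale 21 days after treatment.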

[3] = system: monochoria (Mo); test: Test Example 1: herbicidal effects by flooded paddy field treatment; design: herbicidal effects, Mo (monochoria):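 0-5 growth inhibition grade; 5 = over 90%; 4 = 70-90%; 3 = 50-70%; 2 = 30-50%; 1 = 10-30%; 0 = under 10%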; settings: for herbicidal effects, Mo (monochoria): dose 100 g active ingredient per 10 ares, examined on the 21st day after treatment, standards of Table 44; for Herbicidal effect index, Mo: dose 100 gai/10a, examined on 21st day after treatment, index 0-5 per Table 44;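 on Herbicidal effect index, Mo: 0-5 growth inhibition grade; 5 = over 90%; 4 = 70-90%; 3 = 50-70%; 2 = 30-50%; 1 = 10-30%; 0 = under 10%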
Outline: as §1

[4] = system: barnyard grass (Ec); test: Test Example 2: herbicidal effects by upland soil treatment; design: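 0-5 growth inhibition grade; 5 = over 90%; 4 = 70-90%; 3 = 50-70%; 2 = 30-50%; 1 = 10-30%; 0 = under 10%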; settings: dose 100 g active ingredient per 10 ares, examined on the 21st day after treatment, standards of Table 44
Outline: as §2

[5] = system: monochoria (Mo); test: Test Example 4: selectivity for a crop plant by flooded paddy field treatment; design: scale not given here; settings: for Mo (herbicidal effect index): monochoria, dose 25 gai/10a, 21st day after treatment, index per Table 44; for Mo (herbicidal effects, index): dose 25 g active ingredient per 10 ares, examined on the 21st day after treatment
Outline: (§3)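 Rice at the second-leaf stage is transplanted into puddled, 3 cm-flooded paddy soil alongside sown weed seeds, and a diluted wettable powder is dripped onto the water surface the following day at 25 g a.i./10 ares. Effects are rated 21 days later.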

[6] = system: barnyard grass (Eo); test: as above; design: scale not given here; settings: for Eo (herbicidal effect index): barnyard grass, dose 25 gai/10a, 21st day after treatment, index per Table 44; for Eo (herbicidal effects, index): dose 25 g active ingredient per 10 ares, examined on the 21st day after treatment
Outline: as §3

[7] = system: rice (Or); test: as above; design: scale not given here; settings: rice transplanted at second leaf stage; for Or (herbicidal effect index on crop): dose 25 gai/10a, 21st day after treatment, index per Table 44; for Or (effect on crop plant rice, index): dose 25 g active ingredient per 10 ares, examined on the 21st day after treatment
Outline: as §3

[8] = system: barnyard grass (Ec); test: Test Example 3: herbicidal effects by foliage treatment in upland field; design: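 0-5 growth inhibition grade; 5 = over 90%; 4 = 70-90%; 3 = 50-70%; 2 = 30-50%; 1 = 10-30%; 0 = under 10%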; settings: dose 100 g active ingredient per 10 ares, examined on the 14th day after treatment
Outline: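 Barnyard grass and green foxtail were grown in upland soil for 2 weeks in a greenhouse. A water-diluted wettable powder was sprayed over the foliage at 100 l per 10 ares, giving 100 g active ingredient per 10 ares. Herbicidal effect was scored on day 14 after treatment.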

Cc1ncncc1C(N(C)C(=O)Cc1ccc(Cl)cc1)C(C)(C)C (racemic) [Compound 1-161]
herbicidal effects, Eo (barnyard grass) [1]: 5 | herbicidal effects, Se (green foxtail) [2]: 5 | herbicidal effects, Mo (monochoria) [3]: 5 | herbicidal effects, Ec (barnyard grass) [4]: 5 | Mo (herbicidal effect index) [5]: 5 | Eo (herbicidal effect index) [6]: 5 | Or (herbicidal effect index on crop) [7]: 0

CN(C(=O)Cc1ccc(Cl)cc1)C(c1cccs1)c1cncnc1C(F)(F)F (racemic) [1-200]
herbicidal effects, Eo (barnyard grass) [1]: 5 | herbicidal effects, Se (green foxtail) [2]: 5 | herbicidal effects, Mo (monochoria) [3]: 5 | herbicidal effects, Ec (barnyard grass) [4]: 5 | Mo (herbicidal effect index) [5]: 5 | Eo (herbicidal effect index) [6]: 5 | Or (herbicidal effect index on crop) [7]: 1

CC(C)C(c1cncnc1C(F)(F)F)N(C)C(=O)Cc1cccc([N+](=O)[O-])c1 (racemic) [Compound 1-74]
Herbicidal effect index, Eo [1]: 5 | herbicidal effects, Se (green foxtail) [2]: 5 | Herbicidal effect index, Mo [3]: 5 | herbicidal effects, Ec (barnyard grass) [4]: 5 | Mo (herbicidal effects, index) [5]: 5 | Eo (herbicidal effects, index) [6]: 5 | Or (effect on crop plant rice, index) [7]: 0

CN(C(=O)Cc1ccc(F)cc1)C(c1cncnc1C(F)(F)Cl)C1CC1 (racemic) [Compound 1-92]
Ec (herbicidal effects, index) [8]: 5 | herbicidal effects, Se (green foxtail) [2]: 5 | herbicidal effects, Ec (barnyard grass) [4]: 5

CC(C)C(c1cncnc1C(F)(F)F)N(C)C(=O)Cc1cc(F)cc(F)c1 (racemic) [Compound 1-167]
herbicidal effects, Eo (barnyard grass) [1]: 5 | herbicidal effects, Se (green foxtail) [2]: 5 | herbicidal effects, Mo (monochoria) [3]: 5 | herbicidal effects, Ec (barnyard grass) [4]: 5 | Mo (herbicidal effect index) [5]: 5 | Eo (herbicidal effect index) [6]: 5 | Or (herbicidal effect index on crop) [7]: 1

Cc1ccc(CC(=O)N(C)C(c2cncnc2C(F)(F)F)C(C)C)cc1C (racemic) [Compound 1-72]
Herbicidal effect index, Eo [1]: 5 | herbicidal effects, Se (green foxtail) [2]: 4 | Herbicidal effect index, Mo [3]: 5 | herbicidal effects, Ec (barnyard grass) [4]: 5 | Mo (herbicidal effects, index) [5]: 5 | Eo (herbicidal effects, index) [6]: 5 | Or (effect on crop plant rice, index) [7]: 0

Cc1ccc(CC(=O)N(C)C(c2cncnc2C(F)(F)F)C2CCCC2)cc1 (racemic) [Compound 1-141]
herbicidal effects, Eo (barnyard grass) [1]: 5 | herbicidal effects, Se (green foxtail) [2]: 5 | herbicidal effects, Mo (monochoria) [3]: 5 | herbicidal effects, Ec (barnyard grass) [4]: 5 | Mo (herbicidal effect index) [5]: 5 | Eo (herbicidal effect index) [6]: 5 | Or (herbicidal effect index on crop) [7]: 1

CCc1ccc(CC(=O)N(C)C(c2cncnc2C(F)(F)F)C(C)C)cc1 (racemic) [Compound 1-67]
Herbicidal effect index, Eo [1]: 5 | herbicidal effects, Se (green foxtail) [2]: 5 | Herbicidal effect index, Mo [3]: 5 | herbicidal effects, Ec (barnyard grass) [4]: 5 | Mo (herbicidal effects, index) [5]: 5 | Eo (herbicidal effects, index) [6]: 5 | Or (effect on crop plant rice, index) [7]: 1

CSc1ncncc1C(C(C)C)N(C)C(=O)Cc1ccccc1 (racemic) [Compound 1-150]
herbicidal effects, Eo (barnyard grass) [1]: 5 | herbicidal effects, Se (green foxtail) [2]: 5 | herbicidal effects, Mo (monochoria) [3]: 5 | herbicidal effects, Ec (barnyard grass) [4]: 5 | Mo (herbicidal effect index) [5]: 5 | Eo (herbicidal effect index) [6]: 5 | Or (herbicidal effect index on crop) [7]: 1

CC(C)C(c1cncnc1C(F)(F)F)N(C)C(=O)Cc1ccc([N+](=O)[O-])cc1 (racemic) [Compound 1-52]
Herbicidal effect index, Eo [1]: 5 | herbicidal effects, Se (green foxtail) [2]: 5 | Herbicidal effect index, Mo [3]: 5 | herbicidal effects, Ec (barnyard grass) [4]: 5 | Mo (herbicidal effects, index) [5]: 5 | Eo (herbicidal effects, index) [6]: 5 | Or (effect on crop plant rice, index) [7]: 1

CC(Oc1ccc(Cl)cc1)C(=O)N(C)C(c1cncnc1C(F)(F)F)C(C)C (mixture of isomers) [Compound 1-116]
Herbicidal effect index, Eo [1]: 5 | herbicidal effects, Se (green foxtail) [2]: 4 | Herbicidal effect index, Mo [3]: 5 | herbicidal effects, Ec (barnyard grass) [4]: 5 | Mo (herbicidal effect index) [5]: 5 | Eo (herbicidal effect index) [6]: 5 | Or (herbicidal effect index on crop) [7]: 0

CCN(C(=O)Cc1ccc(Cl)cc1)C(c1cncnc1C(F)F)C(C)C (racemic) [Compound 1-170]
herbicidal effects, Eo (barnyard grass) [1]: 5 | herbicidal effects, Se (green foxtail) [2]: 5 | herbicidal effects, Mo (monochoria) [3]: 5 | herbicidal effects, Ec (barnyard grass) [4]: 5 | Mo (herbicidal effect index) [5]: 5 | Eo (herbicidal effect index) [6]: 5 | Or (herbicidal effect index on crop) [7]: 1

CC(C)C(c1cncnc1C(F)(F)F)N(C(=O)Cc1ccccc1)C(C)C (racemic) [Compound 1-103]
Herbicidal effect index, Eo [1]: 5 | herbicidal effects, Se (green foxtail) [2]: 5 | Herbicidal effect index, Mo [3]: 5 | herbicidal effects, Ec (barnyard grass) [4]: 5 | Mo (herbicidal effect index) [5]: 5 | Eo (herbicidal effect index) [6]: 5 | Or (herbicidal effect index on crop) [7]: 1

Cc1ccccc1OCC(=O)N(C)C(c1cncnc1C(F)(F)F)C(C)C (racemic) [Compound 1-134]
herbicidal effects, Eo (barnyard grass) [1]: 5 | herbicidal effects, Se (green foxtail) [2]: 5 | herbicidal effects, Mo (monochoria) [3]: 5 | herbicidal effects, Ec (barnyard grass) [4]: 5 | Mo (herbicidal effect index) [5]: 5 | Eo (herbicidal effect index) [6]: 5 | Or (herbicidal effect index on crop) [7]: 0

Cc1ccc(CC(=O)N(C)C(c2cncnc2C(C)C)C(C)C)cc1 (racemic) [Compound 1-131]
herbicidal effects, Eo (barnyard grass) [1]: 5 | herbicidal effects, Se (green foxtail) [2]: 5 | herbicidal effects, Mo (monochoria) [3]: 5 | herbicidal effects, Ec (barnyard grass) [4]: 5 | Mo (herbicidal effect index) [5]: 5 | Eo (herbicidal effect index) [6]: 5 | Or (herbicidal effect index on crop) [7]: 1

CC(C)C(c1cncnc1C(F)(F)F)N(C)C(=O)Cc1ccc2c(c1)OCO2 (racemic) [Compound 1-146]
herbicidal effects, Eo (barnyard grass) [1]: 5 | herbicidal effects, Se (green foxtail) [2]: 4 | herbicidal effects, Mo (monochoria) [3]: 5 | herbicidal effects, Ec (barnyard grass) [4]: 4 | Mo (herbicidal effect index) [5]: 5 | Eo (herbicidal effect index) [6]: 5 | Or (herbicidal effect index on crop) [7]: 1

CN(C(=O)Cc1ccccc1)C(c1cncnc1C(F)(F)Cl)C1CC1 (racemic) [Compound 1-91]
Herbicidal effect index, Eo [1]: 5 | herbicidal effects, Se (green foxtail) [2]: 5 | Herbicidal effect index, Mo [3]: 5 | herbicidal effects, Ec (barnyard grass) [4]: 4 | Mo (herbicidal effects, index) [5]: 5 | Eo (herbicidal effects, index) [6]: 5 | Or (effect on crop plant rice, index) [7]: 1

Cc1ccc(CC(=O)N(C)C(c2ccc(C)cc2)c2cncnc2C(F)(F)F)cc1 (racemic) [1-228]
herbicidal effects, Eo (barnyard grass) [1]: 5 | herbicidal effects, Se (green foxtail) [2]: 5 | herbicidal effects, Mo (monochoria) [3]: 5 | herbicidal effects, Ec (barnyard grass) [4]: 5 | Mo (herbicidal effect index) [5]: 5 | Eo (herbicidal effect index) [6]: 5 | Or (herbicidal effect index on crop) [7]: 0

CN(C(=O)Cc1ccc(Cl)cc1)C(c1cncnc1C(F)(F)F)C1CCCC1 (racemic) [Compound 1-139]
herbicidal effects, Eo (barnyard grass) [1]: 5 | herbicidal effects, Se (green foxtail) [2]: 5 | herbicidal effects, Mo (monochoria) [3]: 5 | herbicidal effects, Ec (barnyard grass) [4]: 5 | Mo (herbicidal effect index) [5]: 5 | Eo (herbicidal effect index) [6]: 5 | Or (herbicidal effect index on crop) [7]: 0
